According to publication PMC6450673, “Targeted degradation of aberrant tau in frontotemporal dementia patient-derived neuronal cell models” (eLife, 2019):

Key:
[1] = target: T1, total tau (TAU5) in control-1 8330–8-RC1 neurons (Homo sapiens, UniProt P10636); experiment: Western blot of total tau in control line 1 neurons; assay type: cell-based; settings: control line 1, western blot, 1 μM, 24 hr
T1 construct: modeling pathogenic tau species without the need for overexpression of heterologous genes; endogenous in cells; host or cells: 8330-8-RC1, MGH2069-RC1, CTR2-L17-RC2 human iPSC-derived neurons
T1 sequence (P10636 1-441 isoform P10636-8): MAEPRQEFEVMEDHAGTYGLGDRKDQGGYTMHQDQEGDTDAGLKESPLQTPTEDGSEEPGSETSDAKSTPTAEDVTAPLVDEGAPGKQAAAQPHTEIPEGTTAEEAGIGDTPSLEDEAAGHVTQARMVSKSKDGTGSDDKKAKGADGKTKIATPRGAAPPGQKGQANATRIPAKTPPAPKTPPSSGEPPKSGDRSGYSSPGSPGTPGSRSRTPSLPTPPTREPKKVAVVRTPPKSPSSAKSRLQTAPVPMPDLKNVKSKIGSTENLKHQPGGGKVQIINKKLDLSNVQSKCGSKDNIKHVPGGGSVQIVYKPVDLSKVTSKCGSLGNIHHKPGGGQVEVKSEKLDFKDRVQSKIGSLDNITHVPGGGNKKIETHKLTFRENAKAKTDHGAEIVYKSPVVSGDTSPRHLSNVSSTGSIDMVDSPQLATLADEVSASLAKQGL
From the text: Cells from individuals carrying the tau risk variant A152T (c.1407G > A; NCBI RefSeq NM_001123066, rs143624519), the autosomal dominant mutation P301L (c.C1907T; NCBI NM_001123066, rs63751273), or age-matched non-mutant WT tau were employed in this study (Figure 2—source data 1). Dermal fibroblasts from the tau-P301L carrier and the healthy individual were generated from a skin biopsy from subjects within the MGH Frontotemporal Disorders Unit as part of the MGH Neurodegeneration Repository. Approval for human subjects’ work was obtained under a Partners/MGH-approved IRB Protocol (#2010P001611/MGH). […]
Neurons differentiated in six-well plates for 6 weeks were washed and collected in PBS, lysed in RIPA buffer (Boston Bio-Products, Boston, MA) supplemented with 2% SDS (Sigma), protease inhibitors cocktail (Roche Complete Mini tablets, Mannheim, Germany), and phosphatase inhibitors cocktail (Sigma), followed by water sonication (Bransonic Ultrasonic Baths, Thomas Scientific, Danbury, CT) and 20,000 g centrifugation for 20 min. Supernatants were transferred to new tubes and total protein concentration was quantified with the Pierce BCA Protein Assay Kit (ThermoFisher Scientific, Carlsbad, CA). […]

[2] = tested on: total tau (K9JA) and P-tau S396/S404 (PHF-1) in A152T neurons; experiment: Immunofluorescence of tau in A152T neurons; assay type: cell-based, human; settings: 10 μM, 24 hr, relative to vehicle- or QC-03–075-treated
Procedure: A152T NPCs were plated and differentiated in 96-well black clear-bottom plates (Corning) POL-coated for 6 weeks. Neurons were fixed with 4% (v/v) formaldehyde-PBS (Tousimis, Rockville, MD) for 20 min, washed in PBS (Corning), incubated in blocking/permeabilization buffer [10 mg/mL BSA (Sigma), 0.05% (v/v) Tween-20 (Biorad), 2% (v/v) goat serum, 0.1% Triton X-100 (Biorad), 92% (v/v) PBS] for 2 hr, followed by overnight incubation with primary antibodies (see antibody section), PBS washed, and then incubated with the corresponding AlexaFluor conjugated secondary antibodies (Life Technologies, Carlsbad, CA). Image acquisition was done with the IN Cell Analyzer 6000 Cell Imaging System (GE Healthcare Life Sciences, Marlborough, MA).

Q: Which results are given for `O=C(CCc1ccc2c(c1)[nH]c1ccncc12)NCCOCCOCCNc1cccc2c1C(=O)N(C1CCC(=O)NC1=O)C2=O` (stereo not drawn) [QC-01–175]?
A: degradation of tau [1]: unable to induce significant degradation; P-tau S396/S404 (PHF-1) by immunofluorescence [2]: clear reduction; total tau (K9JA) by immunofluorescence [2]: clear reduction
